Experimental data: patent publication US12577227B2, “WDR5 inhibitors and modulators” (Vanderbilt University, priority 2019, dated 2026)

Test system: MV4:11 human cancer cell lines
Assay: Cellular viability / anti-proliferative activity (CellTiter-Glo)
Format: cell-based
Details: MV4-11, 120 h, MV-4-11 cells, 5 day protocol, mean of minimum two replicates, read-out: GI50 on cellular proliferation of MV4:11 human cancer cell lines
Procedure: Cellular Viability of Human Tumor Cell Lines
Anti-Proliferative Activity Using MLL-Harboring Cell Lines.
MV-4-11 and K562 cells are grown in IMDM media supplemented with 10% FBS and […], Molm-13 cells are cultured in RPMI-1640 media supplemented with 10% FBS and 1% o penicillin/streptomycin. Viability assays are performed by dispensing 200 cells at 7200 cells/mL into each well of an opaque 384-well plate and adding compounds at the indicated concentrations in a final volume of 32 μL and a final concentration of DMSO of 0.3% for all samples. A certain range of compound concentrations is made through a series of 2-fold dilutions starting 30 μM at the highest, total 22 dilutions. After a set incubation period, 5 day protocol, the viability of cells in each well is assessed using the CellTiter-Glo assay (Promega), read on a 96 Microplane Luminometer (Cytation 3, BioTek). Serial dilutions of each cell type are performed in all assays to generate standard curves and the final densities of cells are determined within the dynamic range of the instrument. GI50 values are calculated based on XLfit software (IDBS, Guildford, UK) with Sigmoidal Dose-Response Model. Each compound is tested in minimum of two replicates. Data are expressed as mean.

| GI50 [nM] | Compound |
| --- | --- |
| 79 | Cc1cc(C)nc(CN2CCOc3c(cc(Cn4ccnc4C)cc3-c3cc(C)c(F)cc3C)C2=O)c1 [Example 51, 4-((4,6-Dimethylpyridin-2-yl)methyl)-9-(4-fluoro-2,5-dimethylphenyl)-7-((2-methyl-1H-imidazol-1-yl)methyl)-3,4-dihydrobenzo[f][1,4]oxazepin-5(2H)-one] |
| 2430 | COc1cc(CN2C[C@H](C)Oc3c(cc(Cn4ccnc4C)cc3-c3ccc(F)cc3C)C2=O)cc(OC)c1 [Example 36, (S)-4-(3,5-Dimethoxybenzyl)-9-(4-fluoro-2-methylphenyl)-2-methyl-7-((2-methyl-1H-imidazol-1-yl)methyl)-3,4-dihydrobenzo[f][1,4]oxazepin-5(2H)-one] |
| 67 | COc1ccnc([C@H](C)N2CCOc3c(cc(Cn4cnn(C)c4=N)cc3-c3cn(C)nc3C(F)(F)F)C2=O)c1 [Example 53, (S)-7-((5-Imino-1-methyl-1,5-dihydro-4H-1,2,4-triazol-4-yl)methyl)-4-(1-(4-methoxypyridin-2-yl)ethyl)-9-(1-methyl-3-(trifluoromethyl)-1H-pyrazol-4-yl)-3,4-dihydrobenzo[f][1,4]oxazepin-5(2H)-one] |
| > 940 | COc1cc(Cn2cnc3c(-c4ccc(F)cc4C)cc(Cn4ccc5cccnc54)cc3c2=O)cc(OC)c1 [Example 5, 6-((1H-Pyrrolo[2,3-b]pyridin-1-yl)methyl)-3-(3,5-dimethoxybenzyl)-8-(4-fluoro-2-methylphenyl)quinazolin-4(3H)-one] |
| 12 | COc1ccnc(CN2CCOc3c(cc(Cn4ccn(C)c4=N)cc3-c3ccc(F)cc3C)C2=O)c1 [Example 13, 9-(4-Fluoro-2-methylphenyl)-7-((2-imino-3-methyl-2,3-dihydro-1H-imidazol-1-yl)methyl)-4-((4-methoxypyridin-2-yl)methyl)-3,4-dihydrobenzo[f][1,4]oxazepin-5(2H)-one] |
| 321 | CCc1cc(OC)c2nccc(N3CCOc4c(cc(Cn5ccnc5)cc4-c4cn(C)nc4C(F)(F)F)C3=O)c2c1 [Example 67, 7-((1H-imidazol-1-yl)methyl)-4-(6-ethyl-8-methoxyquinolin-4-yl)-9-(1-methyl-3-(trifluoromethyl)-1H-pyrazol-4-yl)-3,4-dihydrobenzo[f][1,4]oxazepin-5(2H)-one] |
| 173 | Cc1cc(C)nc(CN2CCOc3c(cc(Cn4ccn(C)c4=N)cc3-c3cn(C)nc3C(F)(F)F)C2=O)c1 [Example 22, 4-((4,6-Dimethylpyridin-2-yl)methyl)-7-((2-imino-3-methyl-2,3-dihydro-1H-imidazol-1-yl)methyl)-9-(1-methyl-3-(trifluoromethyl)-1H-pyrazol-4-yl)-3,4-dihydrobenzo[f][1,4]oxazepin-5(2H)-one] |
| 355 | COc1cc(CN2CCOc3c(cc(Cn4ccccc4=N)cc3-c3ccc(F)cc3C)C2=O)cc(OC)c1 [Example 8, 4-(3,5-Dimethoxybenzyl)-9-(4-fluoro-2-methylphenyl)-7-((2-iminopyridin-1(2H)-yl)methyl)-3,4-dihydrobenzo[f][1,4]oxazepin-5(2H)-one] |
| 231 | Cc1cc(C)nc(CN2CCOc3c(cc(Cn4cnn(C)c4=N)cc3-c3cn(C)nc3C(F)(F)F)C2=O)c1 [Example 31, 4-((4,6-dimethylpyridin-2-yl)methyl)-7-((5-imino-1-methyl-1,5-dihydro-4H-1,2,4-triazol-4-yl)methyl)-9-(1-methyl-3-(trifluoromethyl)-1H-pyrazol-4-yl)-3,4-dihydrobenzo[f][1,4]oxazepin-5(2H)-one] |
| > 940 | COc1cc(Cn2cnc3c(-c4ccc(F)cc4C)cc(Cn4ccc5ccccc54)cc3c2=O)cc(OC)c1 [Example 4, 6-((1H-Indol-1-yl)methyl)-3-(3,5-dimethoxybenzyl)-8-(4-fluoro-2-methylphenyl)quinazolin-4(3H)-one] |
| 150 | COc1cc(Cn2cnc3c(-c4ccc(F)cc4C)cc(Cn4ccn(C)c4=N)cc3c2=O)cc(OC)c1 [Example 1, 3-(3,5-Dimethoxybenzyl)-8-(4-fluoro-2-methylphenyl)-6-((2-imino-3-methyl-2,3-dihydro-1H-imidazol-1-yl)methyl)quinazolin-4(3H)-one] |
| 101 | COc1cc(CN2CCOc3c(cc(Cn4cnn(C)c4=N)cc3-c3cn(C)nc3C(F)(F)F)C2=O)cc(OC)c1 [Example 15, 4-(3,5-Dimethoxybenzyl)-7-((5-imino-1-methyl-1,5-dihydro-4H-1,2,4-triazol-4-yl)methyl)-9-(1-methyl-3-(trifluoromethyl)-1H-pyrazol-4-yl)-3,4-dihydrobenzo[f][1,4]oxazepin-5(2H)-one] |
| 290 | CCn1cc(-c2cc(Cn3ccnc3)cc3c2NC(=O)CN([C@H](c2cc(OC)ccn2)C2CC2)C3=O)c(C(F)(F)F)n1 [Example 65, (S)-7-((1H-imidazol-1-yl)methyl)-4-(cyclopropyl(4-methoxypyridin-2-yl)methyl)-9-(1-ethyl-3-(trifluoromethyl)-1H-pyrazol-4-yl)-3,4-dihydro-1H-benzo[e][1,4]diazepine-2,5-dione] |
| 108 | CCn1cc(-c2cc(Cn3ccnc3)cc3c2OCCN([C@H](c2cc(OC)ccn2)C2CC2)C3=O)c(C(F)(F)F)n1 [Example 59, (S)-7-((1H-Imidazol-1-yl)methyl)-4-(cyclopropyl(4-methoxypyridin-2-yl)methyl)-9-(1-ethyl-3-(trifluoromethyl)-1H-pyrazol-4-yl)-3,4-dihydrobenzo[f][1,4]oxazepin-5(2H)-one] |
| 192 | Cc1ccnc(CN2CCOc3c(cc(Cn4ccnc4C)cc3-c3cn(C)nc3C(F)(F)F)C2=O)c1 [Example 27, 7-((2-Methyl-1H-imidazol-1-yl)methyl)-9-(1-methyl-3-(trifluoromethyl)-1H-pyrazol-4-yl)-4-((4-methylpyridin-2-yl)methyl)-3,4-dihydrobenzo[f][1,4]oxazepin-5(2H)-one] |
| 100 | COc1ccc2nc(C)cc(N3CCOc4c(cc(Cn5ccnc5)cc4-c4cn(C)nc4C(F)(F)F)C3=O)c2c1 [Example 68, 7-((1H-imidazol-1-yl)methyl)-4-(6-methoxy-2-methylquinolin-4-yl)-9-(1-methyl-3-(trifluoromethyl)-1H-pyrazol-4-yl)-3,4-dihydrobenzo[f][1,4]oxazepin-5(2H)-one] |
| 306 | COc1cnc2cccc(N3CCOc4c(cc(Cn5ccnc5)cc4-c4cn(C)nc4C(F)(F)F)C3=O)c2c1 [Example 70, 7-((1H-imidazol-1-yl)methyl)-4-(3-methoxyquinolin-5-yl)-9-(1-methyl-3-(trifluoromethyl)-1H-pyrazol-4-yl)-3,4-dihydrobenzo[f][1,4]oxazepin-5(2H)-one] |
| 1470 | COc1cc(CN2C[C@@H](C)Oc3c(cc(Cn4ccnc4C)cc3-c3ccc(F)cc3C)C2=O)cc(OC)c1 [Example 34, (R)-4-(3,5-Dimethoxybenzyl)-9-(4-fluoro-2-methylphenyl)-2-methyl-7-((2-methyl-1H-imidazol-1-yl)methyl)-3,4-dihydrobenzo[f][1,4]oxazepin-5(2H)-one] |
| 703 | Cc1cc(C)nc(CN2CCOc3c(cc(Cn4ccnc4C)cc3-c3scnc3C)C2=O)c1 [Example 46, 4-((4,6-Dimethylpyridin-2-yl)methyl)-7-((2-methyl-1H-imidazol-1-yl)methyl)-9-(4-methylthiazol-5-yl)-3,4-dihydrobenzo[f][1,4]oxazepin-5(2H)-one] |
| 775 | Cc1ccnc(CN2CCOc3c(cc(Cn4cnn(C)c4=N)cc3-c3cn(C)nc3C(F)(F)F)C2=O)c1 [Example 32, 7-((5-imino-1-methyl-1,5-dihydro-4H-1,2,4-triazol-4-yl)methyl)-9-(1-methyl-3-(trifluoromethyl)-1H-pyrazol-4-yl)-4-((4-methylpyridin-2-yl)methyl)-3,4-dihydrobenzo[f][1,4]oxazepin-5(2H)-one] |
| 39 | COc1cc(OC)c2nc(C)cc(N3CCOc4c(cc(Cn5ccnc5)cc4-c4cn(C)nc4C(F)(F)F)C3=O)c2c1 [Example 69, 7-((1H-imidazol-1-yl)methyl)-4-(6,8-dimethoxy-2-methylquinolin-4-yl)-9-(1-methyl-3-(trifluoromethyl)-1H-pyrazol-4-yl)-3,4-dihydrobenzo[f][1,4]oxazepin-5(2H)-one] |
| 63 | Cc1cc(C)nc(CN2CCOc3c(cc(Cn4ccnc4C)cc3-c3cc(Cl)ccc3C)C2=O)c1 [Example 52, 9-(5-Chloro-2-methylphenyl)-4-((4,6-dimethylpyridin-2-yl)methyl)-7-((2-methyl-1H-imidazol-1-yl)methyl)-3,4-dihydrobenzo[f][1,4]oxazepin-5(2H)-one] |
| > 940 | COc1cc(CN2CCOc3c(cc(CNc4ccccn4)cc3-c3ccc(F)cc3C)C2=O)cc(OC)c1 [Example 10, 4-(3,5-Dimethoxybenzyl)-9-(4-fluoro-2-methylphenyl)-7-((pyridin-2-ylamino)methyl)-3,4-dihydrobenzo[f][1,4]oxazepin-5(2H)-one] |
| 772 | CCOC(=O)c1cc(CC)cc2c(N3CCOc4c(cc(Cn5ccnc5)cc4-c4cn(C)nc4C(F)(F)F)C3=O)ccnc12 [Example 66, Ethyl 4-(7-((1H-imidazol-1-yl)methyl)-9-(1-methyl-3-(trifluoromethyl)-1H-pyrazol-4-yl)-5-oxo-2,3-dihydrobenzo[f][1,4]oxazepin-4(5H)-yl)-6-ethylquinoline-8-carboxylate] |
